# Data from ChEMBL document CHEMBL1158244, “A new norcembranoid dimer from the red sea soft coral Sinularia gardineri” (1996).
# How the values were obtained:
# Assay type in all cases: functional
# [1] = system: P388; assay: Cytotoxicity against mouse P388 cells
# [2] = system: A549; assay: Cytotoxicity against human A549 cells
# [3] = system: HT-29; assay: Cytotoxicity against human HT29 cells
# [4] = system: SK-MEL-28; assay: Cytotoxicity against human SK-MEL-28 cells
# [5] = system: Candida albicans; assay: Antifungal activity against Candida albicans B311 at 1 mg/mL; conditions: read-out: IZ
# [6] = system: Cryptococcus neoformans; assay: Antifungal activity against Cryptococcus neoformans at 1 mg/mL; conditions: read-out: IZ
Structure (SMILES),Activity [1] [µg/mL],Activity [2] [µg/mL],Activity [3] [µg/mL],Activity [4] [µg/mL],zone of inhibition at 1000 µg/mL [5] [mm],zone of inhibition at 1000 µg/mL [6] [mm]
C=C(C)[C@H]1CC[C@@]23O[C@@H]2[C@@H](C[C@@]2(C)CC(=O)[C@H](CC(=O)C1)O2)OC(=O)[C@@]12CC[C@H](C(=C)C)CC(=O)C[C@H]4O[C@](C)(CC4=O)C[C@@H](OC3=O)[C@@H]1O2 [SINGARDIN],1,2.5,5,5,3,3
CC(C)C1=C[C@@H]2[C@H](CC[C@@]2(C)O)[C@@](C)(O)CC1 [GUAIANEDIOL],1,2.5,5,5,–,–
C[C@@H]1[C@H](O)[C@@H](C)/C=C/C=C/C=C/C=C/C=C/C=C/C=C/[C@H](O[C@@H]2O[C@H](C)[C@@H](O)[C@H](N)[C@@H]2O)C[C@@H]2O[C@](O)(C[C@@H](O)C[C@@H](O)[C@H](O)CC[C@@H](O)C[C@@H](O)CC(=O)O[C@H]1C)C[C@H](O)[C@H]2C(=O)O [AMPHOTERICIN B],–,–,–,–,12,10
